Laboratory results as given in patent US20070254843A1, “Methods for treating bone associated diseases by the use of methionine aminopeptidase-2 inhibitors” (Praecis Pharmaceuticals Incorporated, priority 2006, published 2007).

Legend:
[1] = tested on: PG-PS-induced arthritis; experiment: Rat model of PG-PS induced arthritis, paw swelling; type: in vivo; details: 1, 5 and 10 mg/kg p.o. qod, day 15 to 31, versus vehicle
Procedure: Rat model of PG-PS induced arthritis. Female Lewis rats (109-130 g) were received from Charles River Laboratories. Food and water were available ad libitum. PG-PS (25 mg/kg) was injected i.p. on day 1 and responding animals were randomized into treatment groups on day 14. Vehicle (11% HPCD in PBS), dex and the MetAP-2 inhibitor (1, 5, and 10 mg/kg) were administered p.o., qod. Paw swelling was monitored using a plethysmometer (Stoelting Co., Woodale, Ill.) according to instrument specifications. The volumes of the two hind paws were measured and averaged on day 1, 4, 6, 8, 10, 13, 15, 17, 20, 22, 23, 27, 29 and 31. Ten animals were assigned to each group except the vehicle group and animals which received no PG-PS, but 10 mg/kg MetAP-2 inhibitor (n=4).

[2] = target: T1, MetAP-2 (Rattus norvegicus, UniProt P38062); experiment: MetAP-2 pharmacodynamic assay in wbc lysates; type: in vivo; details: po, PG-PS arthritis rats, read-out: MetAP-2 in wbc inhibited relative to vehicle-treated group
T1 construct: wbc from animals of each study group were pooled and cell lysates were prepared as previously described; from tissue; host or cells: white blood cells (wbc) of female Lewis rats, pooled per study group and lysed
Procedure: MetAP-2 pharmacodynamic assay. The MetAP-2 assay measures the amount of uninhibited MetAP-2 in cells or tissues which has not been derivitized by prior treatment with the MetAP-2 inhibitor (Bernier (2004) Proc. Natl. Acad. Sci. USA 101: 10768-10773 and Bernier (2005) J. Cell. Biochem. 95: 1191-1203). Briefly, wbc from animals of each study group were pooled and cell lysates were prepared as previously described (Bernier (2004) Proc. Natl. Acad. Sci. USA 101: 10768-10773 and Bernier (2005) J. Cell. Biochem. 95: 1191-1203). 10 μg to 20 μg of wbc protein was incubated with a biotinylated analog of the MetAP-2 inhibitor which covalently binds to the catalytic site of MetAP-2. The biotinylated MetAP-2-inhibitor complex was captured on a plate with immobilized streptavidin (Pierce), and detected with the MetAP-2 antibody CM33 (0.5 μg/ml), followed by horseradish peroxidase-conjugated goat anti-rabbit IgG secondary antibody. The amount of uninhibited MetAP-2 was determined by measuring the absorption at 450 nm using a Labsystems Multiskan plate spectrophotometer. Human recombinant MetAP-2 (Mediomics), pre-bound to the biotinylated MetAP-2 inhibitor, was used to generate the standard curve. The detection limit of this assay was 0.47 ng MetAP-2 protein/mg wbc protein.
Since the MetAP-2 inhibitor had the ability to inhibit multiple cell types critical for pathogenesis of the bone associated disease, RA, in vitro, it was hypothesized that the observations from the in vitro studies (Example 1) would translate into protection from disease in animals in the PG-PS model of arthritis. The progression of disease in this model follows a biphasic mode, with an early acute, predominantly neutrophil-driven phase which persists to days 6-7, followed by a chronic, T cell dependent phase (evident around day 12), which is characterized by chronic inflammation and erosive synovitis (Palombella (1998) Proc. Natl. Acad. Sci. USA 95:15671-15676). Therapeutic dosing of animals administered the MetAP-2 inhibitor orally (p.o.) at 1, 5 and 10 mg/kg, every other day (qod), or vehicle started at day 15 after the chronic destructive phase of the disease was established and terminated on day 31. […] The amount of uninhibited MetAP-2 in wbc of animals from all treatment groups was measured after conclusion of the study, using the MetAP-2 pharmacodynamic assay (Bernier (2004) Proc. Natl. Acad. Sci. USA 101: 10768-10773 and Bernier (2005) J. Cell. Biochem. 95: 1191-1203). […]

[3] = tested on: COMP; experiment: Serum COMP ELISA in rat PG-PS arthritis model; type: in vivo; details: 1, 5 and 10 mg/kg p.o. qod, after conclusion of the study
Procedure: (§1) ELISAs for cartilage and bone biochemical turnover markers. The amount of COMP in serum was measured with a competitive enzyme immunoassay (MD Biosciences, Inc) according to the manufacturer's instructions. The detection limit of this ELISA was 0.2 U/L. Helical peptide (amino acids 620 to 633) from the α1 chain of bone-specific human CTX-I was measured either in cell culture supernatants of primary human OC precursors cultured as described above, or in urine with a competitive enzyme immunoassay (Quidel Corporation). The detection limit of this ELISA was 8 μg/L. All CTX-I measurements in urine were corrected for urinary creatinine excretion for each sample to account for potential differences in renal clearance rates among the different study groups. Urinary creatinine was measured with a colorimetric assay (Quidel Corporation).
The destruction of articular joints is the radiographic hallmark of bone associated disease. Therefore, the activity of the MetAP-2 inhibitor on these destructive processes was assessed by measuring biochemical turnover markers of cartilage erosion and bone resorption. […] The amount of COMP in serum of animals treated therapeutically with the MetAP-2 inhibitor (1, 5, and 10 mg/kg, p.o., qod), or vehicle was measured after conclusion of the study.

[4] = tested on: primary human OC cultured on human bone particles; experiment: Bone resorption in vitro, CTX-I ELISA of culture supernatant; type: cell-based
Procedure: as §1
To determine whether the inhibition of OC differentiation by the MetAP-2 inhibitor in vitro correlated with the inhibition of bone resorption in vitro, primary human OC were cultured on a thin layer of human bone particles in the presence of M-CSF and RANKL, and vehicle or increasing concentrations of the MetAP-2 inhibitor. […] After 7 days, the culture supernatant was collected and the amount of bone-specific collagen type I C-terminal helical peptide (CTX-I) was measured by ELISA.

[5] = tested on: HUVEC; details: 100 nM; cited from earlier work
[6] = tested on: HFLS-R^A; details: in vitro; cited from earlier work

T1 sequence (P38062 whole entry): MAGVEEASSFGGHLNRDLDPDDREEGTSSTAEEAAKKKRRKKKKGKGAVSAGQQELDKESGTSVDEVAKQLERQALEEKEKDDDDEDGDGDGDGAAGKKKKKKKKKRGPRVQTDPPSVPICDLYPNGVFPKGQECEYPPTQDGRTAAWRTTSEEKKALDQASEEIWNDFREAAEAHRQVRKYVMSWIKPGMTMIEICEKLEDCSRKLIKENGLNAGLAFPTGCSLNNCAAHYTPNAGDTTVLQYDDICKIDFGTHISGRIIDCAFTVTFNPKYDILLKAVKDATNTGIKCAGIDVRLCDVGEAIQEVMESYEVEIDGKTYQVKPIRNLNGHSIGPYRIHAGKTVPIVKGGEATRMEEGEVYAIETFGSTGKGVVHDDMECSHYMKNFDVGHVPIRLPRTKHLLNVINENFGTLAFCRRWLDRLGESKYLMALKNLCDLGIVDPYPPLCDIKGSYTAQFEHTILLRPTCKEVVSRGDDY

- inhibition at 1 mg/kg ([2]; 1 mg/kg p.o. qod): ≥ 60%
- inhibition at 5 mg/kg ([2]; 5 mg/kg p.o. qod): ≥ 95%
- inhibition at 10 mg/kg ([2]; 10 mg/kg p.o. qod): ≥ 95%
- IC50 ([4]; 168 h, 7 days, M-CSF and RANKL, human bone particles, read-out: IC50, bone resorbing activity of OC (CTX-I)): ≤ 0.1 nM
Structure (SMILES): CO[C@@H]1[C@H](OC(=O)N[C@@H](C(N)=O)C(C)C)CC[C@]2(CO2)[C@H]1[C@@]1(C)O[C@@H]1CC=C(C)C [MetAP-2 inhibitor, (1-Carbamoyl-2-methyl-propyl)-carbamic acid-(3R,4S,5S,6R)-5-methoxy-4-[(2R,3R)-2-methyl-3-(3-methyl-but-2-enyl)-oxiranyl]-1-oxa-spiro[2,5]oct-6-yl ester]
- joint swelling and inflammation, paw swelling of the hind limbs [1]: significant amelioration
- systemic level of COMP in serum [3]: significant decrease
- degree of inhibition of bone resorption ([4]; at 1 nM and 10 nM, versus E-64 at 100 nM): comparable to the inhibitory activity of E-64 at 100 nM
- induction of apoptosis in HUVEC [5]: did not induce apoptosis
- inhibition of proliferation of HFLS-RA [6]: potently inhibit
